Earlier results, collected in patent publication US10293048B2, “Pharmaceutical compositions comprising boronic acid compounds” (DR. REDDY'S LABORATORIES LIMITED, priority 2012, dated 2019).
Like-named read-outs stand apart in the source and are kept apart here.

Conditions: 1.3 mM in 2% ethyl alcohol/98% normal saline pH 2.8, 25° C., 14 days

degradation (containing 0.1% of ascorbic acid): 21.8% | degradation (no ascorbic acid): 5.9%
SMILES: CC(C)C[C@H](NC(=O)[C@H](Cc1ccccc1)NC(=O)c1cnccn1)B(O)O [bortezomib, [(1R)-3-methyl-1-[[(2S)-1-oxo-3-phenyl-2-[(pyrazinylcarbonyl)amino]propyl]amino]butyl]boronic acid]
